Here are results for 1 compound from patent US4716228A, “Condensed 2-substituted thiazole derivatives” (Farmitalia Carlo Erba S.p.A., priority 1985, dated 1987).

The test system of assay [1] is acetyl salicylic acid (ASA) induced gastric ulcers. In words: inhibition of acetyl salicylic acid (ASA) induced gastric ulcers in rats. In kind it is in vivo. The following applies: po; rat, p.o.; read-out: ASA Test ED50. On the procedure: The activity of these compounds was assessed in rats in anti-ulcer and anti-secretory tests. The anti-ulcerogenic activity of the compounds of the invention is shown, for example, by the fact that they are active in the test of the inhibition of acetyl salicylic acid (ASA) induced gastric ulcers in rats (M. Hemmati et al., Pharmacology, 9, 374, 1973).

The test system of another assay is stress ulcers. As to the kind of experiment: inhibition of stress ulcers in rats (restraint in water at 23° C. for 4 hours). The assay is classed as in vivo. Particulars: po, rat, p.o., read-out: Stress Test ED50. On the procedure:
The anti-ulcerogenic activity of the compounds of the invention is shown also by the fact that they are active in the test of the inhibition of stress ulcers in rats (restraint in water at 23° C. for 4 hours), according to the method of M. Usardi et al. (Prostaglandins, 8, 43, 1974).

The subject of assay [2] is duodenal ulcers, induced by cysteamine. In words: inhibition of duodenal ulcers induced in rats by cysteamine. In kind it is in vivo. The following applies: po; rat, p.o.; inhibition of ulcer index; read-out: Cysteamine Test ED50. On the procedure: The inhibition of duodenal ulcers, induced in rats by cysteamine, was evaluated for the test of compounds as percentage inhibition of ucler index [sum of the lesioned areas per rat (mm^2)] according to the method of Fuji Y. et at, Jap. J. Pharm. 25, 663, 1975.

The next assay has as its system gastric secretion. As to the kind of experiment: gastric anti-secretory activity, pylorus ligature technique. In kind it is in vivo, rats. Particulars: rat, i.d., read-out: Antisecretory activ. test ED50. On the procedure:
The gastric anti-secretory activity of the compounds of the invention was evaluated in rats by the pylorus ligature technique (H. Shay et al., Gastroenterology 5, 43, 1945).

For another assay, the system named is histamine H2-receptor. In words: histamine H2-receptor antagonist activity in vitro on the guinea pig right atrium. In kind it is cell-based. The following applies: screening dose 1.10^-5 M. On the procedure:
The compounds of the invention were assayed for histamine H2 -receptor antagonist activity in vitro on the guinea pig right atrium. Male guinea pigs were killed by a blow on the head and the heart was quickly excised and placed in oxygenated Ringer Locke solution of the following composition (g/l): NaCl 9, KCl 0.42, CaCl2 0.24, NaHCO3 0.5, Glucose 1. Atria were dissected away from the rest of the heart, freed from connective tissue, suspended in 20 ml organ bath containing Ringer Locke solution thermoregulated at 37° C., and carboxygenated with 95% O2 and 5% CO2. Atria spontaneously beating were allowed to adjust to the bath conditions for at least 30 minutes prior to the experiment. Histamine was added to the bath in cumulative fashion starting from 3×10^-7 M till 1×10^-4 M. The histamine-induced increase in atrial rate was allowed to plateau before the next successive concentration was added. After washing and waiting for the recovery of atria rate, compounds were added 5 minutes before repeating the cumulative dose response curve with histamine.
A compound is considered an H2 -receptor antagonist if it is able to shift the dose response curve of histamine to the right of the concentration <1×10^-5 M.

For the compound `CC(C)NC(=O)N1CCc2nc(N=C(N)N)sc2C1` [Example 1, 2-Guanidino-5-isopropylcarbamoyl-4,5,6,7-teteahydrothiazolo-[5,4-c]pyridine], the median effective dose (ED50) (as a rule, the midpoint of the dose-response relation) in assay [1] is 0.017 mg/kg; in the assay with stress ulcers, 2.9 mg/kg; in assay [2], 0.4 mg/kg; with gastric secretion, 0.33 mg/kg. The Anti-H2 activity test result with histamine H2-receptor is “active”.
